Here are results for 2 molecules from US9873883B2, “Glyphosate resistant plants and associated methods” (Dow AgroSciences LLC, priority 2012, dated 2018).

What is called kcat/Km is the turnover number divided by the Michaelis constant. Usually IC50 stands for the concentration needed to halve the response being measured. The low end stands for greater potency, the high end for weaker potency.

Structures are written as SMILES.

Assay [1] has as its target Triticum aestivum (wheat) EPSP synthase DGT-7 v5, native (GENBANK EU977181), SEQ ID NO: 60 (Triticum aestivum, UniProt B5M6A1). The experiment in a line: In vitro kinetic assay (inorganic phosphate production, malachite green). The assay is classed as biochemical. An excerpt:
(§1) FIG. 1 depicts a partial sequence alignment of DGT-14 (SEQ ID NO:46), DGT-11 (SEQ ID NO:47), DGT-12 (SEQ ID NO:49), DGT-18 (SEQ ID NO:50), DGT-29 (SEQ ID NO:53), and DGT-30 (SEQ ID NO:52) to other EPSP synthase enzymes, such as; grg-23 (SEQ ID NO:54; derived from U.S. Pat. No. 7,834,249), CP4 (SEQ ID NO:48; GENBANK ACC NO: AEM75108.1) from Agrobacterium tumefaciens, DGT-3 (SEQ ID NO:57; GENBANK ACC NO: P17688) from Brassica napus, DGT-1 (SEQ ID NO:56) from Glycine max, DGT-7 (SEQ ID NO:55; GENBANK ACC NO: EU977181) from Triticum aestivum, and aroA (SEQ ID NO:51; Padgette et al., (1991); Eschenburg et al., (2002); Priestman et al., (2005); Haghani et al., (2008) from Escherichia coli. All six DGT enzymes (DGT-14, DGT-11, DGT-12, DGT-18, DGT-30, and DGT-29) share a conserved alanine at the aroA EPSP synthase enzyme amino acid position 96. The location of this amino acid is indicated by an asterisk, and the amino acid residue is underlined.
(§2) The location of the amino acid residue which was mutated from glycine to alanine is indicated by the first asterisk. The location of the amino acid residue which was mutated from threonine to isoleucine is indicated by the second asterisk. The location of the third amino acid residue which was mutated from proline to serine is indicated by the third asterisk.
(§3) The following Class I enzymes: DGT-1 from Glycine max, DGT-3 from Brassica napus (GENBANK ACC NO: P17688), and DGT-7 from Triticum aestivum (GENBANK ACC NO: EU977181) were used as a comparison. The Class I EPSP synthase enzymes and mutant variants thereof were synthesized and evaluated. A mutation introduced into the plant EPSP synthase enzymes consisted of the Glycine to Alanine mutation made within the EPSP synthase enzyme at a similar location as that of the G96A mutation from the E. coli version of the enzyme. In addition, Threonine to Isoleucine and Proline to Serine mutations were introduced within these Class I EPSP synthase enzymes at analogous positions as that of amino acid 97 (T to I) and amino acid 101 (P to S) in the EPSP synthase of E. coli as described in Funke et al., (2009).
(§4) Additional constructs containing the dgt-1, dgt-3 and dgt-7 were synthesized. These constructs were used for in vitro testing of the dgt-1 v5, dgt-1 v6, dgt-1 v7, dgt-1 v8, dgt-3 v6, dgt-3 v7, dgt-3 v8, dgt-7 v5, dgt-7 v6, dgt-7 v7, and dgt-7 v8 gene sequences were outsourced to GeneArt for synthesis and cloning. The synthesized genes were cloned into the pET28 expression vector. […]

Assay [2] has as its target Glycine max (soybean) EPSP synthase DGT-1 v5, native, SEQ ID NO: 59 (Glycine max, UniProt I1J7U9). Described as above. The assay is classed as biochemical.
Description: as §1, §2, §3, §4

Sequence of Glycine max (soybean) EPSP synthase DGT-1 v5, native, SEQ ID NO: 59 (I1J7U9 entry or part of it): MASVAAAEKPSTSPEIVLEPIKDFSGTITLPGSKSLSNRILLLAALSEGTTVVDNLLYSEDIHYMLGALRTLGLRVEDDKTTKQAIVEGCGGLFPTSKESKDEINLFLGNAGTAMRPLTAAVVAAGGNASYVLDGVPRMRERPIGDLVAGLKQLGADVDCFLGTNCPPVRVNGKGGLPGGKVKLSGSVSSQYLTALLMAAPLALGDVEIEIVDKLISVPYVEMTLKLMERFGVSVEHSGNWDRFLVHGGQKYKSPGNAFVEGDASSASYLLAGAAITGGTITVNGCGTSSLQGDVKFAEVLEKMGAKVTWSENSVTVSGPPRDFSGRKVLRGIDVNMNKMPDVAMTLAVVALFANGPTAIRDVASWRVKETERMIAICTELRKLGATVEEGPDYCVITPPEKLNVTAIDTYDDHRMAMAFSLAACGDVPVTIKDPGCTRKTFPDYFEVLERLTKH
Sequence of Triticum aestivum (wheat) EPSP synthase DGT-7 v5, native (GENBANK EU977181), SEQ ID NO: 60 (B5M6A1 entry or part of it): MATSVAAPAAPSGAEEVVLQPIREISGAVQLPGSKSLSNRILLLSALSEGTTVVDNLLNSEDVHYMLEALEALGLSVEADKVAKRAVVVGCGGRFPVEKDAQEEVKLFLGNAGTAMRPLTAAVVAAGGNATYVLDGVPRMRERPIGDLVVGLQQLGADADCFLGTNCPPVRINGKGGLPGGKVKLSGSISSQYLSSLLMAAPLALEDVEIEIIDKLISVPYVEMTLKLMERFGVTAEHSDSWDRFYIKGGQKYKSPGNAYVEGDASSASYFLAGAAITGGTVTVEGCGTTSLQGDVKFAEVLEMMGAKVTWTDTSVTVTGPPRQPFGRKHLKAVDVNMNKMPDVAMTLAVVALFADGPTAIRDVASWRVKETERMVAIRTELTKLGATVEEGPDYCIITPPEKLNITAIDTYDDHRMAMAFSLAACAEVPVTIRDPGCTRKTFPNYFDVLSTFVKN

Turning to `C=C(OP(=O)(O)O)C(=O)O` [PEP, phosphoenolpyruvate], the kcat/Km in assay [1] (PEP, pH 7.5, 1 mM S3P) came to 215000 M⁻¹ s⁻¹; in assay [2] (PEP, pH 7.5, 1 mM S3P), 74100 M⁻¹ s⁻¹.
For `O=C(O)CNCP(=O)(O)O` [glyphosate, N-(phosphonomethyl)glycine], the IC50 in assay [1] and in assay [2] was ~20 µM throughout.
